Experimental data reported in patent US10966426B2, “Herbicidal compositions comprising phenylpyrimidines” (BASF SE, priority 2016, dated 2021).

How the values were obtained:
Assay type in all cases: in vivo
Helianthus annuus = test: greenhouse pre-emergence treatment, HELAN; settings: HELAN
Summary of the method: (§1)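 Pre-emergence spray of compounds, alone or as combinations formulated as 10% emulsion concentrate in water, directly after sowing in loamy sand (~3.0% humus); pots hooded until rooting, kept at 10-25° C or 20-35° C per species for 2 to 4 weeks. Damage scored 0-100 (100 = no emergence/complete destruction); Colby expected value E=X+Y−(X·Y/100).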

Polygonum convolvulus = test: greenhouse pre-emergence treatment, POLCO; settings: POLCO; for % activity, solo application: Table X1
Summary of the method: as §1

Galium aparine = test: greenhouse pre-emergence treatment, GALAP; settings: GALAP
Summary of the method: as §1

Digitaria sanguinalis = test: greenhouse pre-emergence treatment, DIGSA; settings: DIGSA; for % activity, solo application: 62.5 gai/ha
Summary of the method: as §1

Bromus sterilis = test: greenhouse pre-emergence treatment, BROST; settings: BROST
Summary of the method: as §1

Polygonum aviculare = test: greenhouse post-emergence treatment, POLAV; settings: POLAV; for % activity, solo application: Table X4
Summary of the method: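 Test plants reached 3 to 15 cm before being sprayed with components A, B and, where applicable, C as emulsion concentrates in water. After 2 to 4 weeks at species-dependent temperatures, injury was rated 0–100.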

Lolium perenne = test: greenhouse post-emergence treatment, LOLPE; settings: 20 DAT, 2nd series of rows
Protocol: The culture containers used were plastic pots containing loamy sand with approximately 3.0% of humus as substrate. The seeds of the test plants were sown separately for each species.
To this end, the test plants were either sown directly, and grown in the same containers, or they were first grown separately as seedlings and transplanted into the test containers a few days prior to treatment.
Depending on the species, the plants were kept at 10-25° C. and 20-35° C., respectively.
The test period extended over 2 to 4 weeks. During this time, the plants were tended and their response to the individual treatments was evaluated.
Evaluation was carried out using a scale from 0 to 100. 100 means no emergence of the plants, or complete destruction of at least the above-ground parts, and 0 means no damage or normal course of growth. A good herbicidal activity is given at values of at least 70, and very good herbicidal activity is given at values of at least 85.
In the examples, the solvent used was water.
In the examples below, using the method of S. R. Colby (1967) “Calculating synergistic and antagonistic responses of herbicide combinations”, Weeds 15, p. […] E=X+Y−(X·Y/100) where X=effect in percent using herbicide A at an application rate a; • Y=effect in percent using herbicide B at application rate b; • E=expected effect (in %) of herbicide A+herbicide B at application rates a+b.

BRAPL = test: greenhouse pre-emergence treatment, BRAPL; settings: Table X9, 21 DAT, solo Ex. 5 125 gai/ha
[1] = 20 DAT, solo Ex. 5 31.25 gai/ha
[2] = Ex. 5 solo, 62.5 gai/ha, 20 DAT
[3] = Table X10, 20 DAT, solo Ex. 5 125 gai/ha
[4] = Table X13, 20 DAT, solo Ex. 5 62.5 gai/ha
[5] = Table X9, 21 DAT, solo Ex. 5 125 gai/ha
[6] = Table X13, 20 DAT, solo Ex. 5 125 gai/ha

O=C(O)c1nc(C2CC2)ncc1-c1ccccc1Cl [Ex. 5]
% activity, solo application (Helianthus annuus; 31.25 gai/ha, 20 DAT, Table X6): 0% | % activity, solo application (Helianthus annuus; 62.5 gai/ha, 20 DAT, Table X1): 35% | % activity, solo application (Helianthus annuus; 125 gai/ha, 20 DAT, Table X2): 40% | % activity, solo application (Helianthus annuus; 125 gai/ha, 20 DAT, Table X6): 40% | % activity (Helianthus annuus; Ex. 5 solo, 125 gai/ha, 20 DAT): 60% | % activity (Helianthus annuus; [1]): 0% | % activity (Helianthus annuus; 20 DAT, solo Ex. 5 62.5 gai/ha): 0% | % activity (Helianthus annuus; solo, 31.25 gai/ha, 20 DAT): 0% | % activity (Helianthus annuus; solo, 62.5 gai/ha, 20 DAT): 0% | % activity (Helianthus annuus; solo, 125 gai/ha, 20 DAT): 0% | % activity (Helianthus annuus; solo, 125 gai/ha, 21 DAT): 50% | % activity (Helianthus annuus; solo, 250 gai/ha, 21 DAT): 80% | % activity, solo application (Polygonum convolvulus; 62.5 gai/ha, 20 DAT): 60% | % activity, solo application (Polygonum convolvulus; 125 gai/ha, 20 DAT): 80% | % activity (Polygonum convolvulus; [2]): 65% | % activity (Polygonum convolvulus; Table X10, 20 DAT, solo Ex. 5 31.25 gai/ha): 60% | % activity (Polygonum convolvulus; [3]): 80% | % activity (Polygonum convolvulus; Table X13, 20 DAT, solo Ex. 5 31.25 gai/ha): 60% | % activity (Polygonum convolvulus; [4]): 75% | % activity (Polygonum convolvulus; Table X13, 20 DAT, solo Ex. 5 250 gai/ha): 90% | % activity (Polygonum convolvulus; Table X14, 20 DAT, solo Ex. 5 31.25 gai/ha): 60% | % activity (Polygonum convolvulus; solo, 31.25 gai/ha, 20 DAT): 35% | % activity (Polygonum convolvulus; solo, 62.5 gai/ha, 21 DAT): 70% | % activity (Polygonum convolvulus; solo, 125 gai/ha, 21 DAT): 85% | % activity, solo application (Galium aparine; 62.5 gai/ha, 20 DAT, Table X1): 0% | % activity, solo application (Galium aparine; 62.5 gai/ha, 20 DAT, Table X2): 0% | % activity, solo application (Galium aparine; 62.5 gai/ha, 20 DAT, Table X6): 0% | % activity, solo application (Galium aparine; 125 gai/ha, 20 DAT, Table X2): 40% | % activity (Galium aparine; [2]): 0% | % activity (Galium aparine; Ex. 5 solo, 125 gai/ha, 20 DAT): 0% | % activity (Galium aparine; [1]): 0% | % activity (Galium aparine; 20 DAT, solo Ex. 5 62.5 gai/ha): 0% | % activity (Galium aparine; 20 DAT, solo Ex. 5 125 gai/ha): 0% | % activity (Galium aparine; solo Ex. 5 31.25 gai/ha, 20 DAT): 0% | % activity (Galium aparine; solo Ex. 5 62.5 gai/ha, 20 DAT): 0% | % activity (Galium aparine; solo Ex. 5 125 gai/ha, 20 DAT): 0% | % activity (Galium aparine; [5]): 0% | % activity (Galium aparine; Table X9, 21 DAT, solo Ex. 5 250 gai/ha): 0% | % activity (Galium aparine; Table X10, 20 DAT, solo Ex. 5 62.5 gai/ha): 0% | % activity (Galium aparine; [3]): 20% | % activity (Galium aparine; Table X10, 20 DAT, solo Ex. 5 250 gai/ha): 35% | % activity (Galium aparine; Table X11, 20 DAT, solo Ex. 5 62.5 gai/ha): 0% | % activity (Galium aparine; Table X11, 20 DAT, solo Ex. 5 125 gai/ha): 0% | % activity (Galium aparine; [4]): 20% | % activity (Galium aparine; [6]): 35% | % activity (Galium aparine; solo, 31.25 gai/ha, 20 DAT): 0% | % activity (Galium aparine; solo, 62.5 gai/ha, 20 DAT): 0% | % activity (Galium aparine; solo, 125 gai/ha, 20 DAT): 0% | % activity (Galium aparine; solo, 250 gai/ha, 21 DAT): 25% | % activity, solo application (Digitaria sanguinalis; 20 DAT, Table X2): 65% | % activity, solo application (Digitaria sanguinalis; 20 DAT, Table X6): 65% | % activity (Digitaria sanguinalis; [1]): 40% | % activity (Digitaria sanguinalis; [5]): 90% | % activity (Digitaria sanguinalis; [6]): 90% | % activity (Digitaria sanguinalis; solo, 31.25 gai/ha, 20 DAT): 65% | % activity (Digitaria sanguinalis; solo, 125 gai/ha, 21 DAT): 60% | % activity (Digitaria sanguinalis; solo, 250 gai/ha, 21 DAT): 65% | % activity, solo application (Bromus sterilis; 62.5 gai/ha, 20 DAT, Table X1): 65% | % activity, solo application (Bromus sterilis; 125 gai/ha, 20 DAT, Table X1): 80% | % activity, solo application (Bromus sterilis; 125 gai/ha, 20 DAT, Table X6): 65% | % activity (Bromus sterilis; [1]): 5% | % activity (Bromus sterilis; solo, 62.5 gai/ha, 20 DAT): 45% | % activity (Bromus sterilis; solo, 125 gai/ha, 21 DAT): 75% | % activity, solo application (Polygonum aviculare; 125 gai/ha, 20 DAT): 95% | % activity, solo application (Polygonum aviculare; 250 gai/ha, 20 DAT): 95% | % activity (Polygonum aviculare; Ex. 5 solo, 62.5 gai/ha, 21 DAT): 90% | % activity (Polygonum aviculare; 20 DAT, solo Ex. 5 62.5 gai/ha): 90% | % activity (Polygonum aviculare; 20 DAT, solo Ex. 5 125 gai/ha): 90% | % activity (Polygonum aviculare; 20 DAT, solo Ex. 5 125 gai/ha (Table X66)): 90% | % activity (Lolium perenne; solo Ex. 5 15 gai/ha): 85% | % activity (Lolium perenne; solo Ex. 5 62.5 gai/ha): 80% | % activity (Lolium perenne; solo Ex. 5 250 gai/ha): 85% | % activity (Lolium perenne; solo Ex. 5 500 gai/ha): 85% | % activity (BRAPL): 90%
